From ChEMBL document CHEMBL3351921, “Structure-activity relationships (SAR) and structure-kinetic relationships (SKR) of pyrrolopiperidinone acetic acids as CRTh2 antagonists” (Bioorg Med Chem Lett, 2014)
Values after ≈ are worked out from the molar mass of the structure shown. Active and inactive are the calls of the source. No cut-off for these calls is given here.

What was measured:
[1] = Clearance in rat at 1 mg/kg, iv; type: ADME, organism-based; design: dose 1 mg/kg, route intravenous; details: in vivo
[2] = Dissociation constant, pKa of the compound by potentiometric method; type: physicochemical
[3] = target: T1, Thromboxane A2 receptor (Homo sapiens) (UniProt P21731); experiment: Inhibition of at prostanoid TP receptor (unknown origin) at 10 uM
T1 sequence (whole entry): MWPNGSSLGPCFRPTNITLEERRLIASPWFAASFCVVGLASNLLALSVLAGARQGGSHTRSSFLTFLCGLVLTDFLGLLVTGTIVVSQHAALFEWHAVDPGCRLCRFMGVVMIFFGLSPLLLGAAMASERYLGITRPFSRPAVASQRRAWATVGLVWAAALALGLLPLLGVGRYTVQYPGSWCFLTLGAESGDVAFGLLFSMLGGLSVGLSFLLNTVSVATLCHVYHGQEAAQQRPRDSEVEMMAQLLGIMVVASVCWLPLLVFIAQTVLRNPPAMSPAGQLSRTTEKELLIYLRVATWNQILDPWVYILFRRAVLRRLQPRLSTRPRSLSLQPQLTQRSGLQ

[4] = target: T2, Prostaglandin D2 receptor 2 (Homo sapiens, UniProt Q9Y5Y4); experiment: Antagonist activity at CRTh2 (unknown origin) stably expressed in CHO.K1 cells co-mixing the compound and PGD2 by radio-labelled [35S]-GTPgammaS binding assay; type: functional, cell-based
T2 sequence (Q9Y5Y4 whole entry): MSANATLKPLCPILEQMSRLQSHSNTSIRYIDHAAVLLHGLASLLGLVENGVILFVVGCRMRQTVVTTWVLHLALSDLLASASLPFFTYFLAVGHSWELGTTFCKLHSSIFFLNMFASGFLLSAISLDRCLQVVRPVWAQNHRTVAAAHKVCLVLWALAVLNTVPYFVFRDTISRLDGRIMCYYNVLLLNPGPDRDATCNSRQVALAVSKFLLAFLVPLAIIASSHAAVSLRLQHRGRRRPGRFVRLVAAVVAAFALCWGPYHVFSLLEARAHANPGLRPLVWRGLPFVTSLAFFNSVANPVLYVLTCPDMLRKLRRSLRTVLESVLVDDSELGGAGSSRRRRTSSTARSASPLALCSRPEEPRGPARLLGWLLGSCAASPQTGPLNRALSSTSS

[5] = Apparent permeability across apical to basolateral side of human Caco2 cells at pH 7.4; type: ADME, cell-based; details: Caco-2, pH 7.4
[6] = Volume of distribution at steady state in rat at 1 mg/kg, iv; type: ADME, organism-based; design: dose 1 mg/kg, route intravenous; details: in vivo, read-out: Vdss
[7] = Cmax in rat at 10 mg/kg, po; type: ADME, organism-based; design: dose 10 mg/kg, route oral; details: in vivo
[8] = target: T2, Prostaglandin D2 receptor 2; experiment: Antagonist activity at CRTh2 (unknown origin) stably expressed in PGD2-stimulated CHO.K1 cells preincubated for 180 mins by radio-labelled [35S]-GTPgammaS binding assay; type: functional, cell-based
[9] = target: T2, Prostaglandin D2 receptor 2; experiment: Antagonist activity at CRTh2 (unknown origin) stably expressed in PGD2-stimulated CHO.K1 cells preincubated for 1 hr by radio-labelled [35S]-GTPgammaS binding assay; type: functional, cell-based
[10] = AUC (0 to infinity) in rat at 1 mg/kg, iv; type: ADME, organism-based; design: time infinity, dose 1 mg/kg, route intravenous; details: plasma
[11] = target: T2, Prostaglandin D2 receptor 2; experiment: Antagonist activity at CRTh2 (unknown origin) stably expressed in PGD2-stimulated CHO.K1 cells preincubated for 60 mins by radio-labelled [35S]-GTPgammaS binding assay; type: functional, cell-based
[12] = Oral bioavailability in rat at 10 mg/kg; type: ADME, organism-based; details: in vivo
[13] = target: T3, Prostaglandin D2 receptor 2 (Homo sapiens) (UniProt Q9Y5Y4); details: CHO.K1
T3 sequence (whole entry): T2 sequence (Q9Y5Y4 whole entry)
Description: Antagonist activity at CRTh2 (unknown origin) stably expressed in PGD2-stimulated CHO.K1 cells assessed as dissociation half-life at 5 to 10 times IC50 after 2 hrs by radio-labelled [35S]-GTPgammaS binding assay

[14] = target: T4, Prostaglandin D2 receptor (Homo sapiens) (UniProt Q13258); experiment: Inhibition of at prostanoid DP1 receptor (unknown origin) at 10 uM
T4 sequence (whole entry): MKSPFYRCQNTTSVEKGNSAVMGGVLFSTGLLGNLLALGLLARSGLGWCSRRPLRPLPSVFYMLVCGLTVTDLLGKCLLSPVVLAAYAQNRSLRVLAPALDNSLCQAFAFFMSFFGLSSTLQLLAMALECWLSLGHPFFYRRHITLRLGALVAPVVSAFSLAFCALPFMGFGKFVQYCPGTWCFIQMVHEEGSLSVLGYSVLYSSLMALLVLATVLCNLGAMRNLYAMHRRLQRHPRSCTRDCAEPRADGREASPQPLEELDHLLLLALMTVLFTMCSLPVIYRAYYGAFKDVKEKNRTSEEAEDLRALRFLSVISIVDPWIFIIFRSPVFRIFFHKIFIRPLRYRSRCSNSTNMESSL

[15] = target: T2, Prostaglandin D2 receptor 2; experiment: Antagonist activity at CRTh2 (unknown origin) stably expressed in PGD2-stimulated CHO.K1 cells preincubated for 15 mins by radio-labelled [35S]-GTPgammaS binding assay; type: functional, cell-based
[16] = Terminal half life in rat at 1 mg/kg, iv; type: ADME, organism-based; design: dose 1 mg/kg, route intravenous; details: in vivo, read-out: beta t1/2 (converted)
Cavia porcellus = organism: Cavia porcellus; experiment: Antiinflammatory activity in guinea pig eosinophilia model; type: functional, organism-based
[17] = Terminal half life in rat at 10 mg/kg, po; type: ADME, organism-based; design: dose 10 mg/kg, route oral; details: in vivo, read-out: beta t1/2 (converted)
[18] = Cmax in rat at 1 mg/kg, iv; type: ADME, organism-based; design: dose 1 mg/kg, route intravenous; details: in vivo
[19] = AUC (0 to infinity) in rat at 10 mg/kg, po; type: ADME, organism-based; design: time infinity, dose 10 mg/kg, route oral; details: plasma
[20] = target: T2, Prostaglandin D2 receptor 2; experiment: Antagonist activity at CRTh2 (unknown origin) stably expressed in PGD2-stimulated CHO.K1 cells preincubated for 30 mins by radio-labelled [35S]-GTPgammaS binding assay; type: functional, cell-based
[21] = target: T2, Prostaglandin D2 receptor 2; experiment: Antagonist activity at CRTh2 (unknown origin) stably expressed in PGD2-stimulated CHO.K1 cells preincubated for 120 mins by radio-labelled [35S]-GTPgammaS binding assay; type: functional, cell-based
[22] = Aqueous solubility of the compound at pH 1; type: physicochemical
[23] = Apparent permeability across basolateral to apical side of human Caco2 cells at pH 7.4; type: ADME, cell-based; details: Caco-2, pH 7.4
[24] = target: T2, Prostaglandin D2 receptor 2; experiment: Antagonist activity at CRTh2 (unknown origin) stably expressed in CHO.K1 cells preincubated for 1 hr by radio-labelled [35S]-GTPgammaS binding assay in presence of 4% HSA; type: functional, cell-based
[25] = Aqueous solubility of the compound at pH 7.4; type: physicochemical
[26] = Lipophilicity, log D of the compound by shake-flask method; type: physicochemical; details: octanol/water
Rattus norvegicus [27] = experiment: Oral bioavailability in rat assessed as 2-(2-methyl-4-oxo-3-(2-(phenylsulfonyl)benzyl)-4,5,6,7-tetrahydro-1H-pyrrolo[3,2-c]pyridin-1-yl)acetic acid at 10 mg/kg; type: ADME, organism-based; details: in vivo
Rattus norvegicus [28] = experiment: Terminal half life in rat assessed as 2-(2-methyl-4-oxo-3-(2-(phenylsulfonyl)benzyl)-4,5,6,7-tetrahydro-1H-pyrrolo[3,2-c]pyridin-1-yl)acetic acid at 10 mg/kg, po; type: ADME, organism-based; design: dose 10 mg/kg, route oral; details: in vivo
Rattus norvegicus [29] = experiment: Cmax in rat assessed as 2-(2-methyl-4-oxo-3-(2-(phenylsulfonyl)benzyl)-4,5,6,7-tetrahydro-1H-pyrrolo[3,2-c]pyridin-1-yl)acetic acid at 10 mg/kg, po; type: ADME, organism-based; design: dose 10 mg/kg, route oral; details: in vivo
Rattus norvegicus [30] = experiment: Cmax in rat assessed as 2-(2-methyl-4-oxo-3-(2-(phenylsulfonyl)benzyl)-4,5,6,7-tetrahydro-1H-pyrrolo[3,2-c]pyridin-1-yl)acetic acid at 1 mg/kg, iv; type: ADME, organism-based; design: dose 1 mg/kg, route intravenous; details: in vivo
Rattus norvegicus [31] = experiment: Terminal half life in rat assessed as 2-(2-methyl-4-oxo-3-(2-(phenylsulfonyl)benzyl)-4,5,6,7-tetrahydro-1H-pyrrolo[3,2-c]pyridin-1-yl)acetic acid at 1 mg/kg, iv; type: ADME, organism-based; design: dose 1 mg/kg, route intravenous; details: in vivo
Rattus norvegicus [32] = experiment: AUC (0 to infinity) in rat assessed as 2-(2-methyl-4-oxo-3-(2-(phenylsulfonyl)benzyl)-4,5,6,7-tetrahydro-1H-pyrrolo[3,2-c]pyridin-1-yl)acetic acid at 10 mg/kg, po; type: ADME, organism-based, Plasma; design: time infinity, dose 10 mg/kg, route oral; details: in vivo
Rattus norvegicus [33] = experiment: AUC (0 to infinity) in rat assessed as 2-(2-methyl-4-oxo-3-(2-(phenylsulfonyl)benzyl)-4,5,6,7-tetrahydro-1H-pyrrolo[3,2-c]pyridin-1-yl)acetic acid at 1 mg/kg, iv; type: ADME, organism-based, Plasma; design: time infinity, dose 1 mg/kg, route intravenous; details: in vivo
Rattus norvegicus [34] = experiment: Volume of distribution at steady state in rat assessed as 2-(2-methyl-4-oxo-3-(2-(phenylsulfonyl)benzyl)-4,5,6,7-tetrahydro-1H-pyrrolo[3,2-c]pyridin-1-yl)acetic acid at 1 mg/kg, iv; type: ADME, organism-based; design: dose 1 mg/kg, route intravenous; details: in vivo

SMILES	pKa [2]	inhibition [3]	IC50 [4]	Papp A→B [5]	IC50 [8]	IC50 [9]	IC50 [11]	T1/2 [13]	inhibition [14]	IC50 [15]	IC50 [20]	IC50 [21]	further results
Cc1c(Cc2ccccc2S(=O)(=O)c2ccccc2)c2c(n1CC(=O)O)CC(C)(C)NC2=O	3	< 30%	7.7 nM	1.1 ×10⁻⁶ cm/s	2.1 nM	4 nM	4.2 nM	10 h	< 30%	6.3 nM	5.5 nM	2.9 nM	clearance [1]: 8.4 mL/min/kg; Vd [6]: 0.19 L/kg; Cmax [7]: 126 ng/mL; AUC(0-inf) [10]: 2050 ng·h/mL; bioavailability [12]: 1.3%; half-life [16]: 0.8 h; Activity (Cavia porcellus): Active; half-life [17]: 2.5 h; Cmax [18]: 5490 ng/mL; AUC(0-inf) [19]: 275 ng·h/mL
Cc1c(Cc2ccccc2S(=O)(=O)c2ccccc2)c2c(n1CC(=O)O)CCNC2=O	3	< 30%	6.5 nM	0.01 ×10⁻⁶ cm/s	3 nM	5 nM	4 nM	2.3 h	< 30%	4.9 nM	4.5 nM	3 nM	solubility [22]: 500 µg/mL (≈ 1140 µM); Papp B→A [23]: 0.1 ×10⁻⁶ cm/s; IC50 [24]: 10 nM; solubility [25]: 870 µg/mL (≈ 1980 µM); logD [26]: 0.9
CCOC(=O)Cn1c(C)c(Cc2ccccc2S(=O)(=O)c2ccccc2)c2c1CCNC2=O	–	–	–	–	–	–	–	–	–	–	–	–	F (Rattus norvegicus [27]): 27%; beta t1/2 (Rattus norvegicus [28]): 7.4 h; Cmax (Rattus norvegicus [29]): 842 ng/mL; Cmax (Rattus norvegicus [30]): 5370 ng/mL; beta t1/2 (Rattus norvegicus [31]): 0.3 h; AUC (Rattus norvegicus [32]): 4623 ng·h/mL; AUC (Rattus norvegicus [33]): 1726 ng·h/mL; Vdss (Rattus norvegicus [34]): 0.25 L/kg
